# Assay results as given in publication PMC12909347, “Disconnect between in vitro and in vivo efficacy of the MPS1 inhibitor NTRC 0066-0 against glioblastoma” (Cellular Oncology, 2026).
# Assays:
# Format in all cases: in vivo
# [1] = Pharmacokinetics and brain penetration in wild-type FVB mice
# Procedure: (§1) The pharmacokinetics of NTRC 0066-0 were analyzed in wild-type (WT), Abcb1a/b^−/−, Abcg2^−/−, Abcb1a/b^−/−;Abcg2^−/− and Abcb1a/b^−/−;Abcg2^−/−;Abcc4^−/− FVB mice. All knockout mice strains have been developed at the Netherlands Cancer Institute. For i.v. administration, NTRC0066-0 was formulated in DMSO: Cremophor EL: saline (1:1:8 v/v) and injected at a dose of 5 mg/kg. For i.p and oral administration, NTRC0066-0 was administered at 5, 10 or 20 mg/kg as indicated. Serial blood sampling was done by tail vein bleeding at specific time points. At terminal time points, blood was drawn by cardiac puncture followed by tissue collection. Plasma was obtained from whole blood by centrifugation (5 min, 5,000 rpm, 4 °C) and tissues were weighed and homogenized using a FastPrep®-24 (MP-Biomedicals, NY) in 1% (w/v) bovine serum albumin (Sigma-Aldrich) in water.
# (§2) NTRC 0066-0 was extracted from in vitro and in vivo samples using liquid–liquid extraction with diethyl ether. Another MPS-1 inhibitor, Compound 5 (Cpd-5), was added to the samples as an internal standard. The dried organic phase was reconstituted in 30% methanol in water (v/v). Samples were measured using an LC-MS/MS system comprising an UltiMate 3000 LC Systems (Dionex, Sunnyvale, CA) and an API 4000 mass spectrometer (Sciex, Framingham, MA). Samples were injected on to a Securityguard C18 pre-column (Phenomenex, Utrecht, The Netherlands) connected to a ZORBAX Extend-C18 column (Agilent, Santa Clara, CA). Elution was done at a flow rate of 0.2 mL/min using a 5 min gradient from 20% to 95% B (mobile phase A was 0.1% HCOOH in water (v/v) and mobile phase B was methanol). 95% B was maintained for 3 min followed by re-equilibration at 20% B. Multiple reaction monitoring parameters were 566.2/391.4 (NTRC0066-0) and 581.6/397.0 (internal standard). Analyst® 1.6.2 software (Sciex) was used for system control and data analysis.
# (§3) PK solver was used to determine pharmacokinetic parameters. The standard error of the oral bioavailability was calculated using the formula below: […]
# MRP4 = biological target: T1, MRP4 (Mus musculus, UniProt E9Q236); assay: Brain penetration in Abcb1a/b;Abcg2;Abcc4-/- mice; details: 1 h after 5 mg/kg i.v.
# T1 construct: Abcb1a/b; from tissue; host or cells: blood-brain barrier / brain of FVB mice (Abcb1a/b;Abcg2;Abcc4-/- versus other strains)
# T1 sequence (E9Q236 1-1325): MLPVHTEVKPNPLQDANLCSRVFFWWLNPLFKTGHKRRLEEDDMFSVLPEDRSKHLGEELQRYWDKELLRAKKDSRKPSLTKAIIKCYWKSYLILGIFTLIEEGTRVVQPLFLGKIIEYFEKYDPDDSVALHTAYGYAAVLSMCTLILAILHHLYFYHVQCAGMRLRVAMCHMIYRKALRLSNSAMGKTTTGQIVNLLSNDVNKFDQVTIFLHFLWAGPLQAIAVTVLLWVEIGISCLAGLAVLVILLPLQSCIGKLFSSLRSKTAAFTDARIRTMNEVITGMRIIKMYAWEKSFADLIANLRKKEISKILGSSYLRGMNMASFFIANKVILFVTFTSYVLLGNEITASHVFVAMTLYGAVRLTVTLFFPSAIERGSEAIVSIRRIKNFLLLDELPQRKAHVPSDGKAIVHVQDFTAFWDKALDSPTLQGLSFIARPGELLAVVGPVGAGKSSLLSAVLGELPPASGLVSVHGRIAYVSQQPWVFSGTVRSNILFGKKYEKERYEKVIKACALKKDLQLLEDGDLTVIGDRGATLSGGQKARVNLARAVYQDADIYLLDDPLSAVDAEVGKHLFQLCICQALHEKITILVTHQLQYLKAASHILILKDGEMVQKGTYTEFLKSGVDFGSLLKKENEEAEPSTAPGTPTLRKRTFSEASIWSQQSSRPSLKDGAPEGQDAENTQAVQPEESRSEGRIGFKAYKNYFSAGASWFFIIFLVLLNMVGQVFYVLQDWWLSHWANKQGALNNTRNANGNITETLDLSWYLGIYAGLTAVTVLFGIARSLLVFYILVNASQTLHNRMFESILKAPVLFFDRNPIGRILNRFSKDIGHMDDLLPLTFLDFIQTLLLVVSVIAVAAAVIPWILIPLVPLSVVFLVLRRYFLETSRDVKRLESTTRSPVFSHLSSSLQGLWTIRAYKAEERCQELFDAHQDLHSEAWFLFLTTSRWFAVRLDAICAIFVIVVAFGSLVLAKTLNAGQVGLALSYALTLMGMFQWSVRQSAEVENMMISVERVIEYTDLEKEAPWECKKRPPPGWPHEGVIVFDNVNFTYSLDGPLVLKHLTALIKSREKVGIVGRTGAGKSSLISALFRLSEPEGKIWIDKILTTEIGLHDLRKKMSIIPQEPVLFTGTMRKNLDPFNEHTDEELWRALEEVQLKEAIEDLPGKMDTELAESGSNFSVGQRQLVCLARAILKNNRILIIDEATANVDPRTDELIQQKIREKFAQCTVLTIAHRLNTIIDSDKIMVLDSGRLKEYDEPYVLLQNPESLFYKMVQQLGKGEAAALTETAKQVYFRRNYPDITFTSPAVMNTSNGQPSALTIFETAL
# Procedure: as §1
# NTRC 0066-0 was extracted from in vitro and in vivo samples using liquid–liquid extraction with diethyl ether. Another MPS-1 inhibitor, Compound 5 (Cpd-5), was added to the samples as an internal standard. The dried organic phase was reconstituted in 30% methanol in water (v/v). Samples were measured using an LC-MS/MS system comprising an UltiMate 3000 LC Systems (Dionex, Sunnyvale, CA) and an API 4000 mass spectrometer (Sciex, Framingham, MA). […]
# [2] = Pharmacokinetics and brain penetration in Abcb1a/b;Abcg2-/- mice; details: for Plasma AUC, Abcb1a/b;Abcg2-/- vs WT mice: 10 mg/kg
# Procedure: as §1, §2, §3
# [3] = Abcb1a/b;Abcg2-/-, i.p. 10 mg/kg
# [4] = Abcb1a/b;Abcg2-/-, p.o. 10 mg/kg
compound,measurement,setting,value
CCc1cccc(CC)c1NC(=O)c1ccn2c1CCc1cnc(Nc3ccc(N4CCN(C)CC4)cc3OC)nc1-2 [NTRC 0066-0],Oral bioavailability (relative to i.p.),[1]; WT mice,about 50%
same,Brain-plasma ratio,"[1]; WT mice, 1 h after 5 mg/kg i.v.",approximately 4
same,Brain-to-plasma ratio,"[1]; WT mice, 24 h after 10 mg/kg p.o. or i.p.",approximately 20
same,Cmax,"[1]; WT, i.p. 10 mg/kg",780 ± 130 nM
same,MRT,"[1]; WT, i.p. 10 mg/kg",3.2 ± 0.4 h
same,t1/2,"[1]; WT, i.p. 10 mg/kg",2.5 ± 0.2 h
same,tmax,"[1]; WT, i.p. 10 mg/kg",0.5 ± 0.3 h
same,Plasma AUCi.p.,"[1]; WT, i.p. 10 mg/kg, 0-∞",2.8 ± 0.45 µM·h
same,Cmax,"[1]; WT, p.o. 10 mg/kg",180 ± 6.7 nM
same,MRT,"[1]; WT, p.o. 10 mg/kg",4.7 ± 0.2 h
same,t1/2,"[1]; WT, p.o. 10 mg/kg",2.8 ± 0.2 h
same,tmax,"[1]; WT, p.o. 10 mg/kg",1.8 ± 1.5 h
same,F (bioavailability),"[1]; WT, p.o. 10 mg/kg relative to i.p.",59 ± 11%
same,Plasma AUCp.o.,"[1]; WT, p.o. 10 mg/kg, 0-∞",1.7 ± 0.15 µM·h
same,Brain concentration compared to Abcb1a/b-/- mice,MRP4,did not display further increased
same,Lowest plasma trough concentration,"[2]; 5 mg/kg p.o. morning + 10 mg/kg p.o. about 8 h later, 7 days (5/10 mg/kg b.i.d.x7d)",above 20 nM
same,Brain concentration vs threshold level of in vitro efficacy,"[2]; 1, 4, 8 and 24 h after 20 mg/kg p.o.",remained well above the threshold level of in vitro efficacy
same,"Concentration at 24 h, Abcb1a/b;Abcg2-/- vs WT mice",[2]; 24 h after 10 mg/kg,about 5 fold
same,Plasma concentration,[2]; 24 h after 20 mg/kg p.o.,6 nM
same,Brain penetration (brain vs plasma),[2]; Abcb1a/b;Abcg2-/- mice,20 fold
same,Brain-plasma ratio,[2]; Abcb1a/b;Abcg2-/- mice,above 20
same,Oral bioavailability (relative to i.p.),[2]; Abcb1a/b;Abcg2-/- mice,about 50%
same,Brain concentration compared to Abcb1a/b-/- mice,"[2]; Abcb1a/b;Abcg2-/- mice, 1 h after 5 mg/kg i.v.",did not display further increased
same,Brain-to-plasma ratio,"[2]; Abcb1a/b;Abcg2-/- mice, 24 h after 10 mg/kg p.o. or i.p.",approximately 20
same,Cmax,[2]; [3],1700 ± 160 nM
same,MRT,[2]; [3],4.3 ± 0.4 h
same,t1/2,[2]; [3],3.4 ± 0.4 h
same,tmax,[2]; [3],0.8 ± 0.3 h
same,Plasma AUCi.p.,"[2]; Abcb1a/b;Abcg2-/-, i.p. 10 mg/kg, 0-∞","11,000 ± 2200 nM.h"
same,Cmax,[2]; [4],550 ± 52 nM
same,MRT,[2]; [4],5.2 ± 0.5 h
same,t1/2,[2]; [4],3.6 ± 0.2 h
same,tmax,[2]; [4],3.3 ± 1.5 h
same,F (bioavailability),"[2]; Abcb1a/b;Abcg2-/-, p.o. 10 mg/kg relative to i.p.",43 ± 11%
same,Plasma AUCp.o.,"[2]; Abcb1a/b;Abcg2-/-, p.o. 10 mg/kg, 0-∞",4.7 ± 0.71 µM·h
same,"Plasma AUC, Abcb1a/b;Abcg2-/- vs WT mice",[2]; after i.p. dosing,about 4 fold
same,"Plasma AUC, Abcb1a/b;Abcg2-/- vs WT mice",[2]; after oral dosing,~3 fold
